31 compounds from ChEMBL document CHEMBL4138267, “Synthesis and SAR of 1,2,3,4-Tetrahydroisoquinoline-Based CXCR4 Antagonists” (ACS Med Chem Lett, 2018) can be followed below.

Data set [1] is described as follows: Permeability of the compound at pH 5.5 by PAMPA. In kind it is ADME.
A short description of data set [2]: Permeability of the compound at pH 7.4 by PAMPA. In kind it is ADME.

For the compound `NCCCCN(Cc1cscn1)C[C@H]1Cc2ccccc2CN1`, the permeability result in data set [1] and in data set [2] was “Impermeable” each time.
Regarding `NCCCCN(Cc1ccc(F)cn1)C[C@H]1Cc2ccccc2CN1`, the permeability entry in data set [1] and in data set [2] was “Impermeable” each time.
For the compound `NCCCCN(Cc1nccs1)C[C@H]1Cc2ccccc2CN1`, the permeability result in data set [1] and in data set [2] was “Impermeable” in each case.
As for `Cc1cnc2c(c1)CCC[C@@H]2N(CCCCN)C[C@H]1Cc2ccccc2CN1`, the permeability entry in data set [1] and in data set [2] was “Impermeable” throughout.
Consider `Cc1cccnc1[C@H](C)N(CCCCN)C[C@H]1Cc2ccccc2CN1`, for which the permeability result in data set [1] and in data set [2] was “Impermeable” in each case.
Turning to `NCCCCN(Cc1cc2ccccc2cn1)C[C@H]1Cc2ccccc2CN1`, the permeability result in data set [1] and in data set [2] was “Impermeable” each time.
Regarding `NCCCCN(Cc1ccccn1)C[C@H]1Cc2ccccc2CN1`, the permeability entry in data set [1] and in data set [2] was “Impermeable” in each case.
On to `NCCCCN(Cc1ncccc1Cl)C[C@H]1Cc2ccccc2CN1`, for which the permeability entry in data set [1] and in data set [2] was “Impermeable” in each case.
With `Cc1ccc([C@H](C)N(CCCCN)C[C@H]2Cc3ccccc3CN2)nc1`, the permeability entry in data set [1] and in data set [2] was “Impermeable” each time.
Consider `NCCCCN(Cc1ncccc1F)C[C@H]1Cc2ccccc2CN1`, for which the permeability result in data set [1] and in data set [2] was “Impermeable” in each case.
Consider `COc1ccc(CN(CCCCN)C[C@H]2Cc3ccccc3CN2)nc1`, for which the permeability result in data set [1] and in data set [2] was “Impermeable” throughout.
As for `NCCCCN(Cc1ccc2ccccc2n1)C[C@H]1Cc2ccccc2CN1`, the permeability result in data set [1] and in data set [2] was “Impermeable” throughout.
As to `C[C@@H](c1ccccn1)N(CCCCN)C[C@H]1Cc2ccccc2CN1`, the permeability entry in data set [1] and in data set [2] was “Impermeable” throughout.
Regarding `C=Cc1cccnc1CN(CCCCN)C[C@H]1Cc2ccccc2CN1`, the permeability entry in data set [1] and in data set [2] was “Impermeable” each time.
On to `NCCCCN(Cc1ncccc1C(F)(F)F)C[C@H]1Cc2ccccc2CN1`, for which the permeability entry in data set [1] and in data set [2] was “Impermeable” each time.
As to `NCCCCN(Cc1cc(Cl)ccn1)C[C@H]1Cc2ccccc2CN1`, the permeability result in data set [1] and in data set [2] was “Impermeable” in each case.
As to `NCCCCN(C[C@H]1Cc2ccccc2CN1)[C@H]1CCOc2cccnc21`, the permeability entry in data set [1] and in data set [2] was “Impermeable” in each case.
For `Cc1ccnc(CN(CCCCN)C[C@H]2Cc3ccccc3CN2)c1`, the permeability entry in data set [1] and in data set [2] was “Impermeable” each time.
Regarding `Cc1cc(F)cnc1CN(CCCCN)C[C@H]1Cc2ccccc2CN1`, the permeability entry in data set [1] and in data set [2] was “Impermeable” in each case.
As to `Cc1cnc(CN(CCCCN)C[C@H]2Cc3ccccc3CN2)c(F)c1`, the permeability result in data set [1] and in data set [2] was “Impermeable” throughout.
Regarding `Cc1cccnc1CN(CCCCN)C[C@H]1Cc2ccccc2CN1`, the permeability entry in data set [1] and in data set [2] was “Impermeable” throughout.
As to `Cc1ccc(CN(CCCCN)C[C@H]2Cc3ccccc3CN2)nc1`, the permeability result in data set [1] and in data set [2] was “Impermeable” each time.
Turning to `COc1cccnc1CN(CCCCN)C[C@H]1Cc2ccccc2CN1`, the permeability result in data set [1] and in data set [2] was “Impermeable” in each case.
`Cc1cnc(CN(CCCCN)C[C@H]2Cc3ccccc3CN2)c(C)c1`: the permeability entry in data set [1] and in data set [2] was “Impermeable” throughout.
On to `Cc1nc(CN(CCCCN)C[C@H]2Cc3ccccc3CN2)cs1`, for which the permeability result in data set [1] and in data set [2] was “Impermeable” in each case.
Take `NCCCCN(C[C@H]1Cc2ccccc2CN1)[C@H]1CCCc2cccnc21`: the permeability result in data set [1] and in data set [2] was “Impermeable” in each case.
For the compound `Cc1cccc(CN(CCCCN)C[C@H]2Cc3ccccc3CN2)n1`, the permeability entry in data set [1] and in data set [2] was “Impermeable” in each case.
For the compound `NCCCCN(Cc1ncccc1C1CC1)C[C@H]1Cc2ccccc2CN1`, the permeability result in data set [1] and in data set [2] was “Impermeable” each time.
Turning to `NCCCCN(Cc1ccc(C(F)(F)F)cn1)C[C@H]1Cc2ccccc2CN1`, the permeability entry in data set [1] and in data set [2] was “Impermeable” each time.
With `NCCCCN(Cc1ccc(Cl)cn1)C[C@H]1Cc2ccccc2CN1`, the permeability result in data set [1] and in data set [2] was “Impermeable” throughout.
In the case of `NCCCCN(Cc1nccc2ccccc12)C[C@H]1Cc2ccccc2CN1`, the permeability result in data set [1] and in data set [2] was “Impermeable” throughout.
